Test results reported in patent publication US7781641B2, “Absorbent article” (Kao Corporation, priority 2003, dated 2010).

Experiment: Method of measuring viscosity (tuning fork type vibration mode viscometer)
Format: physicochemical
Description: Measurement is conducted using a tuning fork type vibration mode viscometer (VIBRO NISCOMETERCJV5000 (manufactured by A&D Company Limited) is typically used in this embodiment). An oily skin care agent heated previously at about 100° C. is gradually cooled to room temperature, and viscosity at the predetermined temperature is measured.
“Viscosity of a diamide derivative” in the present invention was measured by the same measuring method as used for the viscosity of an oily skin care agent in the above mentioned first embodiment.

**Q.** For `CCCCCCCCCCCCCCCCOCC(O)CN(CCO)C(=O)CCCCCCCCCCCCCCC` (stereo not shown) [Monoamide of the formula (III)], which “viscosity at 36° C.” value is on record?
**A.** 1000 mPa·s
